Reference: patent US12721801B2, “Compositions and methods relating to stimulation of hyaluronic acid” (Alastin Skincare, Inc., priority 2020, dated 2026)

Assays:
[1] = Preparation of compound stocks in DMSO (dissolution observed); format: physicochemical
Method: (§1) Compounds. Stocks of compounds 1 through 8 on the list below were prepared in PBS at 100× the concentration indicated in red type. […] This stock was 100× of final concentration. A 20 mg/ml stock of compound 10 (CBD) was prepared in DMSO. […] This stock was 200× of final concentration.

human fibroblast cells = test: HA production assessment, SDS-PAGE of fibroblast supernatants; format: cell-based; settings: Experiment 2, primary adult human dermal fibroblasts, 72 hours, octapeptide 100 ug/mL, SymDecanox 250 ug/mL, others 500 ug/mL, FIG. 6
Method: In a second experiment, HA production was also assessed with the test compounds below. Briefly, primary adult human dermal fibroblast cells were cultured until near confluent in 6 well plates. The cells were treated with the compounds and concentrations indicated to the right. After 72 hours, 100 μL of media were collected from each treatment condition and was concentrated in a SpeedVac concentrator to a final volume of ~10 uL.
All 10 μL of the supernatants were loaded onto an acrylamide gel (NuPAGE 4-12% Bis-Tris Protein Gel) and run at 200V for 3 hours. The gel was stained to detect the presence of HA. Data is seen in FIG. 6. […] Lane 11 is the negative control, representing the untreated cells. This band represents the cells constitutive level of HA. Treating the cells with all the indicated compounds (lanes 1-10) produced an increased level of high molecular weight HA. […]

[2] = test system: Hyaluronic Acid Synthase 2 (HAS2); test: Gene expression study (RNA sequencing), HAS2 expression in keratinocytes; format: cell-based; settings: human keratinocytes, 24 hours of compound exposure, FIG. 2
Method: (§2) Cell Lines. Human adult dermal fibroblast and keratinocyte cell lines were treated with 11 different compound treatments (plus DMSO control as treatment #12). Primary fibroblasts, keratinocytes sourced from ZenBio. Primary cells were plated in cell specific media at 5K or 10K cells per cm^2 as per ZenBio instructions. Cells were plated in 48 well plates (Greiner) in triplicate, one cell line per plate. Media volume was 500 ul per well. Outer two columns of wells were not used. All rows were used. Cells were cultured for 2 days in 37° C. 5% CO2 incubator. After 48 hours all the cell cultures were uniform and appeared healthy, no appreciable number of floating dead cells or evidence of vacuolization of cells that might indicate apoptotic or dying cells.
as §1
(§3) Dosing. After 48 hours of attachment culture, fibroblasts and keratinocytes were treated with the test compounds. […]
(§4) RNA Lysate preparation. […] All samples were shipped frozen on dry ice to MedGenome for RNA extraction, library construction and sequencing to 25M paired end 100 bp reads per sample. […]

Hyaluronidase 2 (HYAL2) = test: Gene expression study (RNA sequencing), HYAL2 expression in keratinocytes; format: cell-based; settings: human keratinocytes, 24 hours of compound exposure, FIG. 3
Method: as §2, §1, §3, §4

Q: With `C=C(C)[C@@H]1CCC(C)=C[C@H]1c1c(O)cc(CCCCC)cc1O` [CBD] as the compound, how does the “Dissolution of stock in DMSO” value ([1]; 20 mg/ml stock in DMSO) read?
A: Its value is “slightly cloudy”.

Q: Which “Level of high molecular weight HA (band on gel)” value (human fibroblast cells) does the source give for `CCCCCCCC(=O)CCc1ccc(O)c(OC)c1` [SymDecanox™, hydroxymethoxyphenyl decanone] here?
A: The value was “secrete high molecular weight HA”.

Q: With “Hexapeptide-11: hexapeptide test agent; FVAPFP (SEQ ID NO: 19) is printed as a hexapeptide sequence, not tied explicitly” as the compound, how does the “HAS2 expression in keratinocytes” value [2] read?
A: The value was “excellent upregulation”.

Q: What about the “Hyaluronidase 2 (HYAL2) expression in keratinocytes” value (Hyaluronidase 2 (HYAL2)) of the same compound?
A: The value was “potent downregulation”.

Q: Which results are given for phosphatidylserine?
A: Level of high molecular weight HA (band on gel) (human fibroblast cells): secrete high molecular weight HA; Dissolution of stock in DMSO ([1]; 50 mg/ml stock in DMSO, extensive vortexing and warming): did not fully go into solution

Q: For “tetradecyl-diaminobutyroylvalyldiaminobutyric urea trifluoroacetate [SynHycan]”, which “Level of high molecular weight HA (band on gel)” value (human fibroblast cells) is on record?
A: Its value is “secrete high molecular weight HA”.
